# Data from paper PMC12019328, “Discovery of an ApoE4-targeted small-molecule SirT1 enhancer for the treatment of Alzheimer’s disease” (Scientific Reports, 2025).
# Tests used:
# [1] = test system: SirT1 protein in N2a-E4 cells; assay: SirT1 protein levels in N2a-E4 cells (AlphaLISA); type: cell-based, murine
# Experimental: Relative SirT1 mRNA and protein enhancement by racemate DDL-214 and enantiomers DDL-218 and − 219 was determined in murine neuroblastoma cells stably transfected with ApoE4 (N2a-E4)[25]. All test compounds in DMSO were prepared at 2x the final concentration in DMEM supplemented with 10% fetal bovine serum (FBS) and 1% pen-strep (PS) and 50 µL of each loaded into individual wells of a 96-well plate. Previously cultured N2a-E4 were then trypsinized, harvested, centrifuged, and counted; then 50 µL of cell suspension adjusted to 400 cells/µL was added to each well. The plate was then incubated at 37 °C, 5% CO2 for 48 h. Cells were treated with DDL-214, DDL-218, or DDL-219 at 5 µM final then incubated for 24 h. After incubation, the cells were lysed with 50 µL of ice-cold lysis buffer (0.4% SDS, 3.5% Triton X-100, 0.02% sodium deoxycholate, 28 mM TRIS pH 8) complemented with 1X final Halt™ Protease and Phosphatase Inhibitor Cocktail (Thermo Fisher catalog # 78442), placed on ice for 10 min and at -80 °C, followed by 3 freeze/thaw cycles.
# An AlphaLISA comprising streptavidin donor beads (Revvity catalog # 6760002 S), biotinylated anti-SirT1 N-terminal antibody (monoclonal 19A7AB4, Abcam catalog # ab110304), and acceptor beads (Revvity catalog # 6772001) conjugated to the anti-SirT1 C-terminal antibody (monoclonal 1F3, Abcam catalog # ab104833) was used to determine SirT1 protein levels. […] The plates were read using an Envision plate reader.
# Figure S3B. […] Compound treatment was done at 5 and 50 µM. SirT1 levels were measured by AlphaLISA followed and normalized to protein […]
# Brain tissue was homogenized in PBS (pH 7.4) (1: 3 weight(mg)/volume(µL)) and the protein concentration of was determined using the Micro BCA™ Protein Assay Kit (Thermo Fisher Scientific, Cat#23235). […]
# The % of the unbound drug (fu,bound) was calculated using the following equation: fu,bound = [normalized peak area in buffer side / normalized peak area in brain side] x 100 Liver Microsome Stability [t1/2 (min)] […]
# ApoE4-TR:5xFAD mice = assay: Barnes maze testing in ApoE4-TR:5xFAD mice; type: in vivo; conditions: 20 mg/Kg BID oral, 56 days, vs vehicle
# Experimental: The active (-) enantiomer, DDL-218, underwent efficacy testing in ApoE4-TR:5xFAD mice[27] that were 6-7.5 months old at the start of treatment. ApoE4-TR:5xFAD male and female mice received either 20 mg/Kg DDL-218 BID (~ 8- to10-hour interval; total daily dose of 40 mkd) on weekdays and a single 40 mg/Kg dose on weekends (n = 12) or vehicle-only (n = 11); 8 C57BL/6 mice received vehicle-only as behavioral controls. Dosing was by the oral route and by oral feeding using a pipette as previously described, not gavage, as it is safer for repeated oral dosing than gavage. The dose of 20 mg/kg BID (40 mkd) was selected based on findings from PK analysis and was the highest feasible in the formulation used for oral feeding (compound is first solubilized in water, then mixed strawberry syrup diluted in water, for a final vehicle that is 25% syrup and 75% water). The final concentration of DDL-218 was chosen to deliver 20 mg/Kg in a volume of 10–20 µL (adjusted to the weight of each mouse). […]
# For the probe test of memory, 48 h after the last training, the escape hole is closed and the escape box removed. […] Analysis of latency over the course of training trials was performed using ANY-Maze Software (Wood Dale, IL) and probe data was calculated manually as the software excludes mice that […] the escape hole within 90 s; in manual scoring, they are assigned a 90 s latency.
Compound,"SirT1 protein levels ([1]; N2a-E4 cells, 5 µM, 24 h, vs DMSO control)","latency to enter the escape hole, 48-hour post-training probe (ApoE4-TR:5xFAD mice)",SirT1 increase over vehicle ([1]; 50 uM in N2a-E4 cells)
CC(N)C(=O)OC(C)(C)Cc1ccncc1 (stereo not drawn) [DDL-218],greatest increase in SirT1 protein,decrease in latency,
C#Cc1ccc(CC(C)(C)NC(=O)[C@H](C)N)cc1 [DDL-220],,,30%
